Experimental data from patent publication US12612412B2, “Antiviral heterocyclic compounds” (Enanta Pharmaceuticals, Inc., priority 2021, dated 2026).

Each molecule was assayed on genotype A, "Long" strain RSV (assay: RSV-A assay (CPE protection in Hep-2 cells, ATPlite readout)). Conditions: RSV-A Long strain, MOI 0.1, CPE protection, read-out: Human RSV-A (“Long”) EC50.
Type: cell-based, Human respiratory syncytial virus (HRSV)
How it was run: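 ATPlite luminescence (cellular ATP) served as the measure of cell health after 5 days of infection. Hep-2 cells at 8,000 per well received duplicate 2-fold compound dilutions plus virus at MOI 0.1, and EC50 was calculated from CPE protection.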

EC50 [nM]	SMILES
< 200	COc1cc(C(=O)NC[C@@](O)(c2cc3c(c(-c4ccc(F)c(Br)c4F)n2)OC[C@]3(C)C(N)=O)C(F)(F)F)cc2cn(C3CC3)nc12 [Example 1220]

Same assay, conditions: human respiratory syncytial virus, RSV-A Long strain, MOI 0.1, CPE protection, read-out: Human RSV-A (“Long”) EC50

SMILES	EC50 [nM]
Cc1cnc2c(OC(F)F)cc(C(=O)NC[C@](O)(c3cc4c(c(-c5cc(F)c(F)c(Cl)c5)n3)OC[C@]4(C)C(N)=O)C3CC3)cc2c1 [Example 1213]	< 200
Cc1cnc2c(OC(F)F)cc(C(=O)NC[C@](O)(c3cc4c(c(-c5ccc(Cl)c(F)c5F)n3)OC[C@]4(C)C(N)=O)C3CC3)cc2c1 [Example 1214]	< 200
Cc1cnc2c(OC(F)F)cc(C(=O)NC[C@](O)(c3cc4c(c(-c5ccc(F)cc5Cl)n3)OC[C@]4(C)C(N)=O)C3CC3)cc2c1 [Example 1215]	< 200
[2H]c1nc2c(OC)cc(C(=O)NC[C@](O)(c3cc4c(c(-c5cc(Cl)c(F)cc5F)n3)OC[C@]4(C)C(N)=O)C3CC3)cc2cc1Br [Example 1216]	< 200
COc1cc(C(=O)NC[C@](O)(c2nc(-c3ccc(F)c(Cl)c3F)c3c(c2Cl)[C@@](C)(C(N)=O)CO3)C2CC2)cc2cn(C3CC3)nc12 [Example 1217]	> 200
COc1cc(C(=O)NC[C@@](O)(c2cc3c(c(-c4cc(Br)c(F)cc4F)n2)OC[C@]3(C)C(N)=O)C(F)(F)F)cc2cn(C3CC3)nc12 [Example 1222]	< 200
COc1cc(C(=O)NC[C@@](O)(c2cc3c(c(-c4cccc(Br)c4F)n2)OC[C@]3(C)C(N)=O)C(F)(F)F)cc2cn(C3CC3)nc12 [Example 1224]	< 200
COc1cc(C(=O)NC[C@](O)(c2cc3c(c(-c4cccc(Br)c4F)n2)OC[C@]3(C)C(N)=O)C(F)(F)F)cc2cn(C3CC3)nc12 [Example 1225]	< 200
COc1cc(C(=O)NCC(O)(c2cc3c(c(-c4ccc5c(c4)OC(F)(F)C5(F)F)n2)OC[C@]3(C)C(N)=O)C(F)(F)F)cc2cn(C3CC3)nc12 (stereo partly shown) [Example 1236]	> 200
COc1cc(C(=O)NC[C@@](O)(c2cc3c(c(-c4ccc5c(c4)OC(F)(F)C5(F)F)n2)OC[C@]3(C)C(N)=O)C2CC2)cc2cn(C3CC3)nc12 [Example 1237]	> 200
COc1cc(C(=O)NC[C@](O)(c2cc3c(c(-c4ccc5c(c4)OC(F)(F)C5(F)F)n2)OC[C@]3(C)C(N)=O)C2CC2)cc2cn(C3CC3)nc12 [Example 1238]	< 200
COc1cc(C(=O)NC[C@@](O)(c2cc3c(c(C4=CCN(C(=O)OC(C)(C)C)CC4)n2)OC[C@]3(C)C(N)=O)C(F)(F)F)cc2cn(C3CC3)nc12 [Example 1239]	> 200
COc1cc(C(=O)NCC(O)(c2cc3c(c(C4=CCOCC4)n2)OC[C@]3(C)C(N)=O)C(F)(F)F)cc2cn(C3CC3)nc12 (stereo partly shown) [Example 1240]	> 200
COc1cc(C(=O)NC[C@](O)(c2cc3c(c(C4=CCN(C(=O)OC(C)(C)C)CC4)n2)OC[C@]3(C)C(N)=O)C(F)(F)F)cc2cn(C3CC3)nc12 [Example 1241]	> 200
COc1cc(C(=O)NC[C@](O)(c2cc3c(c(-c4cc(F)cc(Cl)c4F)n2)OC[C@]3(C)C(N)=O)C(F)(F)F)cc2cn(C3CC3)nc12 [Example 1242]	< 200
COc1cc(C(=O)NC[C@](O)(c2cc3c(c(-c4cc(Cl)cc(F)c4F)n2)OC[C@]3(C)C(N)=O)C(F)(F)F)cc2cn(C3CC3)nc12 [Example 1243]	< 200
COc1cc(C(=O)NC[C@](O)(c2cc3c(c(-c4c(F)ccc(F)c4Cl)n2)OC[C@]3(C)C(N)=O)C(F)(F)F)cc2cn(C3CC3)nc12 [Example 1244]	< 200
COc1cc(C(=O)NCC(O)(c2cc3c(c(-c4cc(F)c(Cl)c(F)c4)n2)OC[C@]3(C)C(N)=O)C(F)(F)F)cc2cn(C3CC3)nc12 (stereo partly shown) [Example 1245]	< 200

SMILES	EC50 [nM]
COc1cc(C(=O)NC[C@@](O)(c2cc3c(c(-c4cc(F)cc(F)c4F)n2)OC[C@]3(C)C(N)=O)C(F)(F)F)cc2cn(C3CC3)nc12 [Example 1246]	< 200
COc1cc(C(=O)NC[C@](O)(c2cc3c(c(-c4cc(F)cc(F)c4F)n2)OC[C@]3(C)C(N)=O)C(F)(F)F)cc2cn(C3CC3)nc12 [Example 1247]	< 200
COc1cc(C(=O)NCC(O)(c2cc3c(c(-c4cc(F)cc(Cl)c4)n2)OC[C@]3(C)C(N)=O)C(F)(F)F)cc2cn(C3CC3)nc12 (stereo partly shown) [Example 1252]	< 200
COc1cc(C(=O)NC[C@](O)(c2cc3c(c(-c4cccc(Cl)c4Cl)n2)OC[C@]3(C)C(N)=O)C(F)(F)F)cc2cn(C3CC3)nc12 [Example 1253]	< 200
COc1cc(C(=O)NC[C@](O)(c2cc3c(c(-c4ccc(Cl)cc4Cl)n2)OC[C@]3(C)C(N)=O)C(F)(F)F)cc2cn(C3CC3)nc12 [Example 1254]	< 200
COc1cc(C(=O)NC[C@](O)(c2cc3c(c(-c4cc(Cl)ccc4Cl)n2)OC[C@]3(C)C(N)=O)C(F)(F)F)cc2cn(C3CC3)nc12 [Example 1255]	< 200
COc1cc(C(=O)NCC(O)(c2cc3c(c(-c4cc(Cl)cc(Cl)c4)n2)OC[C@]3(C)C(N)=O)C(F)(F)F)cc2cn(C3CC3)nc12 (stereo partly shown) [Example 1256]	< 200
COc1cc(C(=O)NC[C@](O)(c2cc3c(c(-c4ccc(Cl)c(Cl)c4F)n2)OC[C@]3(C)C(N)=O)C(F)(F)F)cc2cn(C3CC3)nc12 [Example 1257]	< 200
COc1cc(C(=O)NC[C@](O)(c2cc3c(c(-c4cc(Cl)cc(Cl)c4F)n2)OC[C@]3(C)C(N)=O)C(F)(F)F)cc2cn(C3CC3)nc12 [Example 1258]	< 200
COc1cc(C(=O)NC[C@](O)(c2cc3c(c(-c4cc(Cl)cc(F)c4Cl)n2)OC[C@]3(C)C(N)=O)C(F)(F)F)cc2cn(C3CC3)nc12 [Example 1259]	< 200
COc1cc(C(=O)NC[C@](O)(c2cc3c(c(-c4ccc(Cl)c(F)c4Cl)n2)OC[C@]3(C)C(N)=O)C(F)(F)F)cc2cn(C3CC3)nc12 [Example 1260]	< 200
COc1cc(C(=O)NC[C@](O)(c2cc3c(c(-c4cc(F)cc(F)c4Cl)n2)OC[C@]3(C)C(N)=O)C(F)(F)F)cc2cn(C3CC3)nc12 [Example 1261]	< 200
COc1cc(C(=O)NC[C@](O)(c2cc3c(c(-c4c(Cl)ccc(Cl)c4F)n2)OC[C@]3(C)C(N)=O)C(F)(F)F)cc2cn(C3CC3)nc12 [Example 1262]	< 200
COc1cc(C(=O)NC[C@](O)(c2cc3c(c(-c4c(F)ccc(Cl)c4Cl)n2)OC[C@]3(C)C(N)=O)C(F)(F)F)cc2cn(C3CC3)nc12 [Example 1263]	< 200
COc1cc(C(=O)NC[C@](O)(c2cc3c(c(-c4cc(F)c(Cl)cc4Cl)n2)OC[C@]3(C)C(N)=O)C(F)(F)F)cc2cn(C3CC3)nc12 [Example 1265]	< 200
COc1cc(C(=O)NCC(O)(c2cc3c(c(-c4cc(F)c(Cl)c(Cl)c4)n2)OC[C@]3(C)C(N)=O)C(F)(F)F)cc2cn(C3CC3)nc12 (stereo partly shown) [Example 1266]	< 200
COc1cc(C(=O)NC[C@](O)(c2cc3c(c(-c4cc(Cl)c(Cl)cc4F)n2)OC[C@]3(C)C(N)=O)C(F)(F)F)cc2cn(C3CC3)nc12 [Example 1267]	< 200

Other lines, results leading:

EC50 [nM]	SMILES
< 200	C[C@]1(C(N)=O)COc2c1cc([C@@](O)(CNC(=O)c1cc(OC3CC3)c3nn(C(F)F)cc3c1)C1CC1)nc2-c1ccc(F)c(F)c1Cl [Example 1197]
< 200	C[C@]1(C(N)=O)COc2c1cc([C@@](O)(CNC(=O)c1cc(OC3CC3)c3nn(C(F)F)cc3c1)C1CC1)nc2-c1cccc(Cl)c1F [Example 1198]
< 200	C[C@]1(C(N)=O)COc2c1cc([C@@](O)(CNC(=O)c1cc(OC3CC3)c3nn(C(F)F)cc3c1)C1CC1)nc2-c1cc(Cl)ccc1F [Example 1199]
< 200	Cc1cnc2c(OC(F)F)cc(C(=O)NC[C@](O)(c3cc4c(c(-c5cc(Cl)ccc5F)n3)OC[C@]4(C)C(N)=O)C3CC3)cc2c1 [Example 1200]
< 200	CNC(=O)[C@@]1(C)COc2c1cc([C@](O)(CNC(=O)c1cc(OC)c3nn(C4CC4)cc3c1)C(F)(F)F)nc2-c1ccc(F)c(F)c1Cl [Example 1201]
< 200	CNC(=O)[C@@]1(C)COc2c1cc([C@@](O)(CNC(=O)c1cc(OC)c3nn(C4CC4)cc3c1)C(F)(F)F)nc2-c1ccc(F)c(F)c1Cl [Example 1202]
< 200	CNC(=O)[C@@]1(C)COc2c1cc([C@@](O)(CNC(=O)c1cc(OC)c3nn(C4CC4)cc3c1)C(F)(F)F)nc2-c1cc(Cl)c(F)cc1F [Example 1203]
< 200	COc1cc(C(=O)NC[C@](O)(c2cc3c(c(-c4ccc(F)c(F)c4Cl)n2)OC[C@]3(C)C(=O)NC2(C)CC2)C(F)(F)F)cc2cn(C3CC3)nc12 [Example 1204]
< 200	COc1cc(C(=O)NC[C@](O)(c2cc3c(c(-c4cc(Cl)c(F)cc4F)n2)OC[C@]3(C)C(=O)NC2(C)CC2)C(F)(F)F)cc2cn(C3CC3)nc12 [Example 1205]
< 200	Cc1cnc2c(OC(F)F)cc(C(=O)NC[C@](O)(c3cc4c(c(-c5cccc(Br)c5F)n3)OC[C@]4(C)C(N)=O)C3CC3)cc2c1 [Example 1206]
< 200	Cc1cnc2c(OC(F)F)cc(C(=O)NC[C@](O)(c3cc4c(c(-c5ccc(F)c(Br)c5F)n3)OC[C@]4(C)C(N)=O)C3CC3)cc2c1 [Example 1207]
< 200	Cc1cnc2c(OC(F)F)cc(C(=O)NC[C@](O)(c3cc4c(c(-c5ccc(F)c(C(F)(F)F)c5)n3)OC[C@]4(C)C(N)=O)C3CC3)cc2c1 [Example 1208]
< 200	Cc1cnc2c(OC(F)F)cc(C(=O)NC[C@](O)(c3cc4c(c(-c5ccc(C(F)(F)F)cc5)n3)OC[C@]4(C)C(N)=O)C3CC3)cc2c1 [Example 1209]
< 200	COc1cc(C(=O)NC[C@](O)(c2cc3c(c(-c4ccc5c(c4)OC(F)(F)O5)n2)OC[C@]3(C)C(N)=O)C2CC2)cc2cc(C(F)F)nnc12 [Example 1210]
< 200	Cc1cnc2c(OC(F)F)cc(C(=O)NC[C@](O)(c3cc4c(c(-c5cccc(F)c5Cl)n3)OC[C@]4(C)C(N)=O)C3CC3)cc2c1 [Example 1211]
< 200	C[C@]1(C(N)=O)COc2c1cc([C@@](O)(CNC(=O)c1cc(OC(F)F)c3nn(C4CC4)cc3c1)C1CC1)nc2-c1cc(Cl)c(F)cc1F [Example 1212]
